# Experimental data taken from patent US8642794B1, “Biosurfactant compounds produced by Aureobasidium pullulans” (Gyeongbuk Institute for Marine Bio-industry, priority 2012, dated 2014).
# Test: Surface tension measurement with a tensiometer (Sigma 700), aqueous solution dropped onto a hydrophobic film
# Format: physicochemical
# Settings: at 1.0 mg/liter; water as control
# Protocol: The compounds L3-E3 and L3-E6 isolated in Examples 2 and 4, respectively, were dropped onto the surface of a hydrophobic film, and their surface tension was measured by using a tensiometer (Sigma 700 Tensiometer, KSV Instruments Ltd., Finland). Here, water was used as a control, and the change in surface tension was measured by using a microbial culture, L3-E3 and L3-E6.
row,surface tension [dyne/cm],Structure (SMILES)
1,36.4,CCCCCC(O)CC(O)CC(=O)OC(CCCCC)CCCC(=O)OC (centres unmarked) [L3-E6]
2,29.5,CCCCCC(O)CC(O)CC(=O)OC(CCCCC)CC(O)CC(=O)OC (centres unmarked) [L3-E3]
